# Results: patent US20220089575A1, “FARNESOID X RECEPTOR AGONISTS AND USES THEREOF” (Metacrine, Inc., priority 2017, published 2022)
# Biological target: T1, hFXR (Homo sapiens, UniProt Q96RI1)
# T1 construct: expressed in transfected cells; host or cells: CV-1 cells
# T1 sequence (Q96RI1 1-486): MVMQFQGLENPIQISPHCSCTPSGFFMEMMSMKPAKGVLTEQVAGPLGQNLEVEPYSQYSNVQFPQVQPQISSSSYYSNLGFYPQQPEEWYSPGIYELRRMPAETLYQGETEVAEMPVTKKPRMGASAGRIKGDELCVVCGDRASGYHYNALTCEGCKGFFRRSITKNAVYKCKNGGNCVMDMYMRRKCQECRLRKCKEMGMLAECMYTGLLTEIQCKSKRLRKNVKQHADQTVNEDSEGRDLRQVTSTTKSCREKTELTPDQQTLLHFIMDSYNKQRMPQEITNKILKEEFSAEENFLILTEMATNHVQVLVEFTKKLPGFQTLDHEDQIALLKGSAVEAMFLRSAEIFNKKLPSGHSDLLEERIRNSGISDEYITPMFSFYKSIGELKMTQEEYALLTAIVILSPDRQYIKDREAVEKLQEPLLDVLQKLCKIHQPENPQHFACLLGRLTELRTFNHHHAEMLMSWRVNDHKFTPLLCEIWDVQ
# T1 sequence (P19793 1-462 partner): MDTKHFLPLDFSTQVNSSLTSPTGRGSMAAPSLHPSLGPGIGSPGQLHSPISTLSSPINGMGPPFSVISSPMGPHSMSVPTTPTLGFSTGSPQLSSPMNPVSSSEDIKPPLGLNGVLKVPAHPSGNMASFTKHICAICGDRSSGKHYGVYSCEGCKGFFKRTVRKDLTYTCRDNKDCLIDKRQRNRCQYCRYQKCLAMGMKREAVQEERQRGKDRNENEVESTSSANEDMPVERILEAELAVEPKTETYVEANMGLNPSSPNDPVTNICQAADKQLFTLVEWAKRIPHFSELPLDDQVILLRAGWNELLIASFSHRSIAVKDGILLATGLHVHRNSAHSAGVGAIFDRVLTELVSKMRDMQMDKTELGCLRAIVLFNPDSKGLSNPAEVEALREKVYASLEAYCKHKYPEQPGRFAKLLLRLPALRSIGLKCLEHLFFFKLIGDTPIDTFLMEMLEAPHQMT
# Assay: In Vitro FXR Assay (TK): TK-ECRE-luc reporter in transfected CV-1 cells
# Format: cell-based
# Conditions: 18 hrs, luminescence, maximum efficacy of <25% of the Fexarmine control classified as '+'
# How it was run: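 Luciferase read-out after 18 h compound exposure of CV-1 cells carrying transfected hFXR plus hRXR expression plasmids, TK-ECRE-luc reporter and pCMX-YFP. Cells cultured in charcoal-stripped FBS before transfection; compounds serially diluted in DMSO.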
row,Structure (SMILES),EC50 [nM]
1,"COCCNC(=O)O[C@H]1CC[C@H](C(=O)N(C[C@H]2CC[C@H](c3ccc(OC)c(C#N)c3)CC2)c2cc(-c3cnn(C(C)C)c3)ccn2)CC1 [Compound 6.34, trans-4-(((trans-4-(3-Cyano-4-methoxyphenyl)cyclohexyl)methyl)(4-(1-isopropyl-1H-pyrazol-4-yl)pyridin-2-yl)carbamoyl)cyclohexyl (2-methoxyethyl)carbamate]",≤ 250
2,"COc1ccc([C@H]2CC[C@H](CN(c3cc(-c4cnn(C(C)C)c4)ccn3)C(=O)[C@H]3CC[C@H](OC(=O)N4CC(S(C)(=O)=O)C4)CC3)CC2)cc1C#N [Compound 6.36, trans-4-(((trans-4-(3-Cyano-4-methoxyphenyl)cyclohexyl)methyl)(4-(1-isopropyl-1H-pyrazol-4-yl)pyridin-2-yl)carbamoyl)cyclohexyl 3-(methylsulfonyl)azetidine-1-carboxylate]",≤ 250
3,"COc1ccc([C@H]2CC[C@H](CN(c3cc(-c4cnn(C(C)C)c4)ccn3)C(=O)[C@H]3CC[C@H](OC(=O)N4CCOCC4)CC3)CC2)cc1C#N [Compound 6.37, trans-4-(((trans-4-(3-Cyano-4-methoxyphenyl)cyclohexyl)methyl)(4-(1-isopropyl-1H-pyrazol-4-yl)pyridin-2-yl)carbamoyl)cyclohexyl morpholine-4-carboxylate]",≤ 250
4,"COc1ccc([C@H]2CC[C@H](CN(c3cc(-c4cnn(C(C)C)c4)ccn3)C(=O)[C@H]3CC[C@H](OC(=O)N4CCN(C)CC4)CC3)CC2)cc1C#N [Compound 6.38, trans-4-(((trans-4-(3-Cyano-4-methoxyphenyl)cyclohexyl)methyl)(4-(1-isopropyl-1H-pyrazol-4-yl)pyridin-2-yl)carbamoyl)cyclohexyl 4-methylpiperazine-1-carboxylate]",≤ 250
5,"COc1ccc([C@H]2CC[C@H](CN(c3cc(-c4cnn(C(C)C)c4)ccn3)C(=O)[C@H]3CC[C@H](OC(=O)N4CC(S(C)(=O)=O)C4)CC3)CC2)nc1C [Compound 6.39, trans-4-((4-(1-Isopropyl-1H-pyrazol-4-yl)pyridin-2-yl)((trans-4-(5-methoxy-6-methylpyridin-2-yl)cyclohexyl)methyl)carbamoyl)cyclohexyl 3-(methylsulfonyl)azetidine-1-carboxylate]",≤ 250
6,"COc1ccc([C@H]2CC[C@H](CN(c3cc(-c4cnn(C(C)C)c4)ccn3)C(=O)[C@H]3CC[C@H](OC(=O)N4CCOCC4)CC3)CC2)nc1C [Compound 6.40, trans-4-((4-(1-Isopropyl-1H-pyrazol-4-yl)pyridin-2-yl)((trans-4-(5-methoxy-6-methylpyridin-2-yl)cyclohexyl)methyl)carbamoyl)cyclohexyl morpholine-4-carboxylate]",≤ 250
7,"COc1ccc([C@H]2CC[C@H](CN(c3cc(-c4cnn(C(C)C)c4)ccn3)C(=O)[C@H]3CC[C@H](OC(=O)N4CCN(C)CC4)CC3)CC2)nc1C [Compound 6.41, trans-4-((4-(1-Isopropyl-1H-pyrazol-4-yl)pyridin-2-yl)((trans-4-(5-methoxy-6-methylpyridin-2-yl)cyclohexyl)methyl)carbamoyl)cyclohexyl 4-methylpiperazine-1-carboxylate]",≤ 250

# The next lines start with the values.
row,EC50 [nM],Structure (SMILES)
1,≤ 250,"COc1ccc([C@H]2CC[C@H](CN(c3cccc(-c4cnn(C5CC5)c4)c3)C(=O)[C@H]3CC[C@H](OC(=O)NCCO)CC3)CC2)nc1C#N [Compound 6.28, trans-4-(((trans-4-(6-Cyano-5-methoxypyridin-2-yl)cyclohexyl)methyl) (3-(1-cyclopropyl-1H-pyrazol-4-yl)phenyl)carbamoyl)cyclohexyl (2-hydroxyethyl)carbamate]"
2,≤ 250,"COc1ccc([C@H]2CC[C@H](CN(c3cccc(-c4cnn(C5CC5)c4)c3)C(=O)[C@H]3CC[C@H](OC(=O)N4CC(S(C)(=O)=O)C4)CC3)CC2)cc1C [Compound 6.29, trans-4-((3-(1-Cyclopropyl-1H-pyrazol-4-yl)phenyl)((trans-4-(4-methoxy-3-methylphenyl)cyclohexyl)methyl)carbamoyl)cyclohexyl 3-(methylsulfonyl)azetidine-1-carboxylate]"
3,≤ 250,"COc1ccc([C@H]2CC[C@H](CN(c3cccc(-c4cnn(C5CC5)c4)c3)C(=O)[C@H]3CC[C@H](OC(=O)N4CC(SC)C4)CC3)CC2)cc1C [Compound 6.30, trans-4-((3-(1-Cyclopropyl-1H-pyrazol-4-yl)phenyl)((trans-4-(4-methoxy-3-methylphenyl)cyclohexyl)methyl)carbamoyl)cyclohexyl 3-(methylthio) azetidine-1-carboxylate]"
4,≤ 250,"COc1ccc([C@H]2CC[C@H](CN(c3cc(-c4cnn(C(C)C)c4)ccn3)C(=O)[C@H]3CC[C@H](OC(=O)NC4CC4)CC3)CC2)nc1C [Compound 6.31, trans-4-((4-(1-Isopropyl-1H-pyrazol-4-yl)pyridin-2-yl)((trans-4-(5-methoxy-6-methylpyridin-2-yl)cyclohexyl)methyl)carbamoyl)cyclohexyl cyclopropylcarbamate]"
5,≤ 250,"COc1ccc([C@H]2CC[C@H](CN(c3cc(-c4cnn(C(C)C)c4)ccn3)C(=O)[C@H]3CC[C@H](OC(=O)NC(C)C)CC3)CC2)nc1C#N [Compound 6.32, trans-4-(((trans-4-(6-Cyano-5-methoxypyridin-2-yl)cyclohexyl)methyl) (4-(1-isopropyl-1H-pyrazol-4-yl)pyridin-2-yl)carbamoyl)cyclohexyl isopropylcarbamate]"
6,≤ 250,"COc1ccc([C@H]2CC[C@H](CN(c3cc(-c4cnn(C(C)C)c4)ccn3)C(=O)[C@H]3CC[C@H](OC(=O)NC4CC4)CC3)CC2)nc1C#N [Compound 6.33, trans-4-(((trans-4-(6-Cyano-5-methoxypyridin-2-yl)cyclohexyl)methyl) (4-(1-isopropyl-1H-pyrazol-4-yl)pyridin-2-yl)carbamoyl)cyclohexyl cyclopropylcarbamate]"
7,≤ 250,"COc1ccc([C@H]2CC[C@H](CN(c3cc(-c4cnn(C(C)C)c4)ccn3)C(=O)[C@H]3CC[C@H](OC(=O)NC4CC4)CC3)CC2)cc1C#N [Compound 6.35, trans-4-(((trans-4-(3-Cyano-4-methoxyphenyl)cyclohexyl)methyl)(4-(1-isopropyl-1H-pyrazol-4-yl)pyridin-2-yl)carbamoyl)cyclohexyl cyclopropylcarbamate]"
8,≤ 250,"COc1ccc([C@H]2CC[C@H](CN(c3cccc(-c4cnn(C(C)C)c4)c3)C(=O)[C@H]3CC[C@H](OC(=O)N4CC(S(C)(=O)=O)C4)CC3)CC2)nc1C [Compound 6.42, trans-4-((3-(1-Isopropyl-1H-pyrazol-4-yl)phenyl)((trans-4-(5-methoxy-6-methylpyridin-2-yl)cyclohexyl)methyl)carbamoyl)cyclohexyl 3-(methylsulfonyl)azetidine-1-carboxylate]"
9,≤ 250,"COc1ccc([C@H]2CC[C@H](CN(c3cccc(-c4cnn(C(C)C)c4)c3)C(=O)[C@H]3CC[C@H](OC(=O)N4CCOCC4)CC3)CC2)nc1C [Compound 6.43, trans-4-((3-(1-Isopropyl-1H-pyrazol-4-yl)phenyl)((trans-4-(5-methoxy-6-methylpyridin-2-yl)cyclohexyl)methyl)carbamoyl)cyclohexylmorpholine-4-carboxylate]"
